In the assay the target is T1, proton pump (H+/K+-ATPase), porcine gastric vesicles (Sus scrofa, UniProt P19156).
T1 construct: reaction buffer (50 mmol/L Tris-Hepes buffer, pH 6.4) containing porcine gastric vesicles; from tissue; host or cells: porcine gastric mucosa (gastric vesicles prepared by centrifugation)
Put plainly: Inhibitory effects against proton pump (H+/K+-ATPase) activity, malachite green phosphate assay. The class given is biochemical. The settings on record: pH 6.4, 37° C., K+-dependent activity. How it is done:
Test Example 1: Preparation of Gastric Vesicles
Gastric vesicles used in the experiment were prepared by separation from porcine gastric mucosa according to a centrifugation method [Saccomani G, et al., A Nonelectrogenic H^+ Pump in Plasma Membranes of Hog Stomach, J Biol Chem., 1976, 251 (23), 7690-8]. Next, the protein content of the gastric vesicles was quantified using a bicinchoninic acid kit [Smith P K, et al., Measurement of protein using bicinchoninic acid, Anal Biochem., 1985, 150 (1), 76-85)].
Test Example 2: Measurement of Inhibitory Effects Against Proton Pump (H^+/K^+-ATPase) Activity
The inhibitory effects of the compounds against proton pump activity were calculated based on the pump activity determined in the presence of K^+ ions excluding the pump activity determined in the absence of K^+ ions. The inhibitory effects against proton pump activity were measured in 96-well plates, and all reactions were performed with a reaction volume of […] at 37° C. Specifically, 10 μm of valinomycin and each concentration of each compound were pre-incubated in a reaction buffer (50 mmol/L Tris-Hepes buffer, pH 6.4) containing porcine gastric vesicles for 15 minutes. For negative and positive control groups, 1% DMSO was added to buffer, and for test groups, 1% DMSO and a dilution of each concentration of each compound were added. Next, 0.2 mmol/L of adenosine triphosphate (ATP) was added to the reaction buffer and incubated at 37° C. for 40 minutes. After completion of the incubation, a malachite green solution was added to the reaction buffer and incubated for 30 minutes, and the amount of inorganic phosphate in the reaction buffer was measured by colorimetry using a malachite green phosphate assay Kit (Bioassay Systems). For colorimetry, the OD (optical density) at 620 nm was measured using a microplate reader [Synergy H4, hybrid multimode microplate reader, BioTek]. The percent inhibition of proton pump (H^+/K^+-ATPase) was determined based on the OD value of the control group and the OD values of various concentrations of the test compounds, and the IC50 of each test compound was calculated using the Logistic 4-parameter function of Sigmaplot 8.0 program.

What is called IC50 is the concentration that gives 50% inhibition.

T1 sequence (P19156 2-1034 limits assumed): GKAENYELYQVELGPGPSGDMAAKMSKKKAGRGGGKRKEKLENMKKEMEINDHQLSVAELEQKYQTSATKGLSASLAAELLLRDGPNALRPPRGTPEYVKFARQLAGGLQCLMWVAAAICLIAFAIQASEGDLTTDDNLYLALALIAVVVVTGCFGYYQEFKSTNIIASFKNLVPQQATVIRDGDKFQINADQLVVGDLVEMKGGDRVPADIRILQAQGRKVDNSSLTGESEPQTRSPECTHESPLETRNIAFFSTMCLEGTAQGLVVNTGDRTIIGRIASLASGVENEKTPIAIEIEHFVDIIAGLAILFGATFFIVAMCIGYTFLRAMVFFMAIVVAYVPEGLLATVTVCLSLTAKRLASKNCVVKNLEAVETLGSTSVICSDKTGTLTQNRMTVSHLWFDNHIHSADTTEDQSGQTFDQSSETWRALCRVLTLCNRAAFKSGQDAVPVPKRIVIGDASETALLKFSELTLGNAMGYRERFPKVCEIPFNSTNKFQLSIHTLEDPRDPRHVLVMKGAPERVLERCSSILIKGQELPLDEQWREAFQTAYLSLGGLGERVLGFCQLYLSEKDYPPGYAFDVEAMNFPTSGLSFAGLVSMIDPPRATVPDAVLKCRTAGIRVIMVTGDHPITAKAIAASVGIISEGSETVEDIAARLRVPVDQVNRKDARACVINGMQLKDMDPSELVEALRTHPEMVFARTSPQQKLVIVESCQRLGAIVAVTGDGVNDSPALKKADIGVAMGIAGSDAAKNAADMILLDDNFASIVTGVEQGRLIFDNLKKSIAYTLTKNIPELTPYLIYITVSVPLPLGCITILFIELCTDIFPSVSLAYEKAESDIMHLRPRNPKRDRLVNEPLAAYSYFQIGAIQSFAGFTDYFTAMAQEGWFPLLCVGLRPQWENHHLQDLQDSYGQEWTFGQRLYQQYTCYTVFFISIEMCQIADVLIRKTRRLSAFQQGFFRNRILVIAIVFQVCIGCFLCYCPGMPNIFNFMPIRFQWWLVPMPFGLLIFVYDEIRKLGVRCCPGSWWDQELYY
T1 sequence (P18434 whole entry partner): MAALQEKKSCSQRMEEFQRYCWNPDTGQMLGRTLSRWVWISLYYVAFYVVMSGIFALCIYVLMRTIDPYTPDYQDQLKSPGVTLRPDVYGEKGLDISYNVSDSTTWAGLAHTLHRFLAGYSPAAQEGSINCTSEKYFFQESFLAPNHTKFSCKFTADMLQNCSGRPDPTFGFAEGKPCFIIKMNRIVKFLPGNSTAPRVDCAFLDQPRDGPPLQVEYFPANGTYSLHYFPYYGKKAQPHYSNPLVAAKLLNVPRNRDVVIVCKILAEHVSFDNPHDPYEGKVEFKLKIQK

`CC(=O)OC1CN(C(=O)c2cc(NCc3c(C)cccc3C)c3nc(C)c(C)n3c2)C1` [Example 2, 1-{8-[(2,6-dimethylbenzyl)amino]-2,3-dimethylimidazo[1,2-α]pyridine-6-carbonyl}azetidin-3-yl acetate]: the IC50 turned out to be 0.128 µM.
For the compound `COC1CN(C(=O)c2cc(NCc3c(C)cccc3C)c3nc(C)c(C)n3c2)C1` [Example 3, {8-[(2,6-dimethylbenzyl)amino]-2,3-dimethylimidazo[1,2-α]pyridin-6-yl}(3-methoxyazetidin-1-yl)methanone], the IC50 was 0.09 µM.
As for `CCOC1CN(C(=O)c2cc(NCc3c(C)cccc3C)c3nc(C)c(C)n3c2)C1` [Example 4, {8-[(2,6-dimethylbenzyl)amino]-2,3-dimethylimidazo[1,2-α]pyridin-6-yl}(3-ethoxyazetidin-1-yl)methanone], the half-maximal inhibitory concentration (IC50) is 0.093 µM.
Under `COCCOC1CN(C(=O)c2cc(NCc3c(C)cccc3C)c3nc(C)c(C)n3c2)C1` [Example 5, {8-[(2,6-dimethylbenzyl)amino]-2,3-dimethylimidazo[1,2-α]pyridin-6-yl}[3-(2-methoxyethoxy)azetidin-1-yl]methanone] stands 0.117 µM; under `COC(=O)C1CN(C(=O)c2cc(NCc3c(C)cccc3C)c3nc(C)c(C)n3c2)C1` [Example 10, methyl 1-{8-[(2,6-dimethylbenzyl)amino]-2,3-dimethylimidazo[1,2-α]pyridine-6-carbonyl}azetidine-3-carboxylate], 0.048 µM; under `COCC1CN(C(=O)c2cc(NCc3c(C)cccc3C)c3nc(C)c(C)n3c2)C1` [Example 12, {8-[(2,6-dimethylbenzyl)amino]-2,3-dimethylimidazo[1,2-α]pyridin-6-yl}[3-(methoxymethyl)azetidin-1-yl]methanone], 0.065 µM.
The value for `Cc1cccc(C)c1CNc1cc(C(=O)N2CC(F)(CO)C2)cn2c(C)c(C)nc12` [Example 13, {8-[(2,6-dimethylbenzyl)amino]-2,3-dimethylimidazo[1,2-α]pyridin-6-yl}[3-fluoro-3-(hydroxymethyl)azetidin-1-yl]methanone] was 0.119 µM; that for `Cc1cccc(C)c1CNc1cc(C(=O)N2CC(C)(CO)C2)cn2c(C)c(C)nc12` [Example 14, {8-[(2,6-dimethylbenzyl)amino]-2,3-dimethylimidazo[1,2-α]pyridin-6-yl}[3-(hydroxymethyl)-3-methylazetidin-1-yl]methanone] was 0.104 µM; that for `Cc1cccc(C)c1CNc1cc(C(=O)N2CC(C(C)O)C2)cn2c(C)c(C)nc12` (stereo not drawn) [Example 15, {8-[(2,6-dimethylbenzyl)amino]-2,3-dimethylimidazo[1,2-α]pyridin-6-yl}[3-(1-hydroxyethyl)azetidin-1-yl]methanone] was 0.072 µM.
The value for `Cc1cccc(C)c1CNc1cc(C(=O)N2CC(C(C)(C)O)C2)cn2c(C)c(C)nc12` [Example 16, {8-[(2,6-dimethylbenzyl)amino]-2,3-dimethylimidazo[1,2-α]pyridin-6-yl}[3-(2-hydroxypropan-2-yl)azetidin-1-yl]methanone] was 0.122 µM; that for `Cc1cccc(C)c1CNc1cc(C(=O)N2CCC2CO)cn2c(C)c(C)nc12` (stereo not drawn) [Example 17, {8-[(2,6-dimethylbenzyl)amino]-2,3-dimethylimidazo[1,2-α]pyridin-6-yl}[2-(hydroxymethyl)azetidin-1-yl]methanone] was 0.18 µM.
Regarding `CC(=O)C1CN(C(=O)c2cc(NCc3c(C)cccc3C)c3nc(C)c(C)n3c2)C1` [Example 18, 1-{1-[8-({2,6-dimethylbenzyl}amino)-2,3-dimethylimidazo[1,2-α]pyridine-6-carbonyl]azetidin-3-yl}ethanone], the half-maximal inhibitory concentration (IC50) stood at 0.14 µM.
The value for `Cc1cccc(C)c1CNc1cc(C(=O)N2CC(S(C)(=O)=O)C2)cn2c(C)c(C)nc12` [Example 19, {8-[(2,6-dimethylbenzyl)amino]-2,3-dimethylimidazo[1,2-α]pyridin-6-yl}[3-(methylsulfonyl)azetidin-1-yl]methanone] was 0.117 µM; that for `Cc1cccc(C)c1CNc1cc(C(=O)N2CC(CCO)C2)cn2c(C)c(C)nc12` [Example 20, {8-[(2,6-dimethylbenzyl)amino]-2,3-dimethylimidazo[1,2-α]pyridin-6-yl}[3-(2-hydroxyethyl)azetidin-1-yl]methanone] was 0.046 µM.
The value for `Cc1cccc(C)c1CNc1cc(C(=O)N2CC3(CNC3)C2)cn2c(C)c(C)nc12` [Example 21, {8-[(2,6-dimethylbenzyl)amino]-2,3-dimethylimidazo[1,2-α]pyridin-6-yl}(2,6-diazaspiro[3.3]heptan-2-yl)methanone] was 0.6 µM.
For `Cc1cccc(C)c1CNc1cc(C(=O)N2CC3(COC3)C2)cn2c(C)c(C)nc12` [Example 22, {8-[(2,6-dimethylbenzyl)amino]-2,3-dimethylimidazo[1,2-α]pyridin-6-yl}(2-oxa-6-azaspiro[3.3]heptan-6-yl)methanone], the concentration for half-maximal inhibition (IC50) is 0.079 µM.
With `Cc1ccccc1CNc1cc(C(=O)N2CC(O)C2)cn2c(C)c(C)nc12` [Example 23, {2,3-dimethyl-8-[(2-methylbenzyl)amino]imidazo[1,2-α]pyridin-6-yl}(3-hydroxyazetidin-1-yl)methanone], the IC50 was 0.374 µM.
The value for `Cc1cc(F)ccc1CNc1cc(C(=O)N2CC(O)C2)cn2c(C)c(C)nc12` [Example 27, {8-[(4-fluoro-2-methylbenzyl)amino]-2,3-dimethylimidazo[1,2-α]pyridin-6-yl}(3-hydroxyazetidin-1-yl)methanone] was 0.135 µM; that for `Cc1cc(F)ccc1CNc1cc(C(=O)N2CCC2)cn2c(C)c(C)nc12` [Example 28, azetidin-1-yl {8-[(4-fluoro-2-methylbenzyl)amino]-2,3-dimethylimidazo[1,2-α]pyridin-6-yl}methanone] was 0.103 µM; that for `Cc1cc(F)ccc1CNc1cc(C(=O)N2CC(F)C2)cn2c(C)c(C)nc12` [Example 29, {8-[(4-fluoro-2-methylbenzyl)amino]-2,3-dimethylimidazo[1,2-α]pyridin-6-yl}(3-fluoroazetidin-1-yl)methanone] was 0.645 µM.
The value for `Cc1cc(F)ccc1CNc1cc(C(=O)N2CC(C)C2)cn2c(C)c(C)nc12` [Example 30, {8-[(4-fluoro-2-methylbenzyl)amino]-2,3-dimethylimidazo[1,2-α]pyridin-6-yl}(3-methylazetidin-1-yl)methanone] was 0.271 µM; that for `Cc1cc(F)ccc1CNc1cc(C(=O)N2CC(C)(O)C2)cn2c(C)c(C)nc12` [Example 31, {8-[(4-fluoro-2-methylbenzyl)amino]-2,3-dimethylimidazo[1,2-α]pyridin-6-yl}(3-hydroxy-3-methylazetidine-1-yl)methanone] was 0.662 µM.
Under `COC1(C)CN(C(=O)c2cc(NCc3c(C)cccc3C)c3nc(C)c(C)n3c2)C1` [Example 32, {8-[(2,6-dimethylbenzyl)amino]-2,3-dimethylimidazo[1,2-α]pyridin-6-yl}(3-methoxy-3-methylazetidin-1-yl)methanone] stands 0.187 µM; under `Cc1cc(F)cc(C)c1CNc1cc(C(=O)N2CCC2)cn2c(C)c(C)nc12` [Example 35, azetidin-1-yl{8-[(4-fluoro-2,6-dimethylbenzyl)amino]-2,3-dimethylimidazo[1,2-α]pyridin-6-yl}methanone], 0.016 µM.
Consider `Cc1cc(F)cc(C)c1CNc1cc(C(=O)N2CC(C)C2)cn2c(C)c(C)nc12` [Example 37, {8-[(4-fluoro-2,6-dimethylbenzyl)amino]-2,3-dimethylimidazo[1,2-α]pyridin-6-yl}(3-methylazetidin-1-yl)methanone], for which the IC50 worked out at 0.021 µM.
Under `Cc1cc(F)cc(C)c1CNc1cc(C(=O)N2CC(C)(O)C2)cn2c(C)c(C)nc12` [Example 38, {8-[(4-fluoro-2,6-dimethylbenzyl)amino]-2,3-dimethylimidazo[1,2-α]pyridin-6-yl}(3-hydroxy-3-methylazetidin-1-yl)methanone] stands 0.041 µM; under `COCC1CN(C(=O)c2cc(NCc3c(C)cc(F)cc3C)c3nc(C)c(C)n3c2)C1` [Example 40, {8-[(4-fluoro-2,6-dimethylbenzyl)amino]-2,3-dimethylimidazo[1,2-α]pyridin-6-yl}[3-(methoxymethyl)azetidin-1-yl]methanone], 0.134 µM; under `Cc1ccc(F)c(C)c1CNc1cc(C(=O)N2CC(O)C2)cn2c(C)c(C)nc12` [Example 41, {8-[(3-fluoro-2,6-dimethylbenzyl)amino]-2,3-dimethylimidazo[1,2-α]pyridin-6-yl}(3-hydroxyazetidin-1-yl)methanone], 0.149 µM.
